Laboratory results: paper PMC9120017, “Inhibition mechanism of the chloride channel TMEM16A by the pore blocker 1PBC” (Nature Communications, 2022)
Read-outs that look alike come from different tables or passages of the source.

Molecular target: T1, mouse TMEM16A mutant R535A (Mus musculus, UniProt Q8BHY3, R535A)
T1 construct: expressed in transfected cells; host or cells: HEK293T
T1 sequence (Q8BHY3 1-960 R535A): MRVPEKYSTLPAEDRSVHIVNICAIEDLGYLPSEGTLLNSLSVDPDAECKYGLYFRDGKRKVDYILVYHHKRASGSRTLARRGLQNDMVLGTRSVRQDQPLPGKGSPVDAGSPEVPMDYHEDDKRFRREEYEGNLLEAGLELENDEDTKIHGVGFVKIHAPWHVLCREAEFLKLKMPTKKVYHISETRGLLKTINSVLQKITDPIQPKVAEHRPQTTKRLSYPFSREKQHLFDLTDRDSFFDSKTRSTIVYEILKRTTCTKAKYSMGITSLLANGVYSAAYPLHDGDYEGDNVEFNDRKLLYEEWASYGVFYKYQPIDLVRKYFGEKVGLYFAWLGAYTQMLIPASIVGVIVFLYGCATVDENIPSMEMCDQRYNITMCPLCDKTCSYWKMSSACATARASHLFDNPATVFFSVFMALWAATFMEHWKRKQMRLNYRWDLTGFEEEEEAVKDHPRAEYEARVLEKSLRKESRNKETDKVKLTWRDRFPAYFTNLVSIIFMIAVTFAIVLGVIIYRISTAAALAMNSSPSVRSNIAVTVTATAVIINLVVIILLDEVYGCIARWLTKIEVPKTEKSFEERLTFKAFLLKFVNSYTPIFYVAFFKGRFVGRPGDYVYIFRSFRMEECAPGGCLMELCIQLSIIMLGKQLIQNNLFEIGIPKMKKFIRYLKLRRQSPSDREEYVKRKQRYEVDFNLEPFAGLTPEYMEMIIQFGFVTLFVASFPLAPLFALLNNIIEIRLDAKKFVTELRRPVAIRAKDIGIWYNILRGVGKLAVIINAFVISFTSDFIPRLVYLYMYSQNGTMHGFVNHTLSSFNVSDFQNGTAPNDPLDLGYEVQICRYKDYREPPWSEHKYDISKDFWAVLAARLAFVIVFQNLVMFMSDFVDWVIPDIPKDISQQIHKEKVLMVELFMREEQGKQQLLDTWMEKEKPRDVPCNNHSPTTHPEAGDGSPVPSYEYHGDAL
Assay: Inside-out patch recording of 1PBC block, mutant R535A
Assay type: cell-based
Details: for remaining activity at 30 µM: 1PBC 30; for remaining activity at 30 µM / remaining activity at 100 µM: read-out: fraction of unblocked current; for remaining activity at 100 µM: 1PBC 100
Description: HEK293T cells (ATCC CRL-1573) were maintained in Dulbecco’s modified Eagle’s medium (DMEM; Sigma-Aldrich) supplemented with 10 U ml^−1 penicillin, 0.1 mg ml^−1 streptomycin (Sigma-Aldrich), 2 mM L-glutamine (Sigma-Aldrich), and 10% FBS (Sigma-Aldrich) in a humidified atmosphere containing 5% CO2 at 37 °C. HEK293S GnTI^− cells (ATCC CRL-3022) were maintained in HyClone HyCell TransFx-H medium (GE Healthcare) supplemented with 10 U ml^−1 penicillin, 0.1 mg ml^−1 streptomycin, 4 mM L-glutamine, 0.15% poloxamer 188 (Sigma-Aldrich), and 1% FBS in an atmosphere containing 5% CO2 at 185 rpm at 37 °C. The ac splice variant of mouse TMEM16A (UniProt ID: Q8BHY3), mouse TMEM16B (UniProt ID: Q8CFW1), or mouse TMEM16F (UniProt ID: Q6P9J9) bearing a 3C cleavage site, a Venus YFP, a Myc tag, and a Streptavidin-binding peptide (SBP) downstream of the open reading frame in a modified pcDNA3.1 vector (Invitrogen) were used as described previously[21],[31]. Mutations were introduced using a modified QuikChange method[58] and were verified by sequencing.
HEK293T cells were transfected with 3–4 μg DNA per 6 cm Petri dish using the calcium phosphate co-precipitation method and were used within 24–96 h after transfection. Recordings were performed on inside-out patches excised from HEK293T cells expressing the construct of interest. Patch pipettes were pulled from borosilicate glass capillaries (O.D. 1.5 mm, I.D. 0.86 mm, Sutter Instrument) and were fire-polished with a microforge (Narishige) before use. Pipette resistance was typically 3–8 MΩ when filled with the recording solutions detailed below. Seal resistance was typically 4 GΩ or higher. Voltage-clamp recordings were made using Axopatch 200B, Digidata 1550, and Clampex 10.7 (Molecular Devices). Analog signals were filtered with the in-built 4-pole Bessel filter at 10 kHz and were digitized at 20 kHz. Solution exchange was achieved using a gravity-fed system through a theta glass pipette mounted on an ultra-fast piezo-driven stepper (Siskiyou). […] All recordings were performed at 20 °C.
A symmetrical ionic condition was used throughout. Stock solution with Ca^2+-EGTA contained 150 mM NaCl, 5.99 mM Ca(OH)2, 5 mM EGTA, and 10 mM HEPES at pH 7.40. Stock solution with EGTA contained 150 mM NaCl, 5 mM EGTA, and 10 mM HEPES at pH 7.40. Free Ca^2+ concentrations were adjusted by mixing the stock solutions at the required ratios calculated using the WEBMAXC program (http://web.stanford.edu/~cpatton/webmaxcS.htm). Patch pipettes were filled with the stock solution with Ca^2+-EGTA, which has a free Ca^2+ concentration of 1 mM. 1PBC (ChemBridge) stock was reconstituted in anhydrous DMSO (Sigma-Aldrich) at 100 mM and stored at −20 °C. Working solutions with 1PBC were prepared by serial dilution. Unless otherwise stated, experiments were performed at a saturating Ca^2+ concentration as shown in Supplementary Table 1 and the primary data were corrected for current rundown as described previously[21],[25].
Concentration-response relations, obtained from the ratio of the I-V plots before and after the application of the blocker, were fitted to the Hill equation,1 I/Imax=1/1+IC50/[blocker]^h where I/Imax is the normalized current responses, IC50 defines the concentration at which inhibition is at its half-maximum, and h is the Hill coefficient.

remaining activity at 30 µM (-60 mV): 41.8%
remaining activity at 30 µM (-80 mV): 46.3%
remaining activity at 30 µM (-100 mV): 50.1%
remaining activity at 30 µM (-120 mV): 53.6%
remaining activity at 30 µM (-140 mV): 55.9%
remaining activity at 100 µM (0 mV): 10.2%
remaining activity at 100 µM (20 mV): 8.03%
remaining activity at 100 µM (40 mV): 6.85%
remaining activity at 100 µM (60 mV): 5.65%
remaining activity at 100 µM (80 mV): 5.26%
remaining activity at 100 µM (100 mV): 4.79%
remaining activity at 100 µM (120 mV): 4.05%
remaining activity at 100 µM (140 mV): 4.54%
remaining activity at 100 µM (-20 mV): 12.4%
remaining activity at 100 µM (-40 mV): 14.1%
remaining activity at 100 µM (-60 mV): 17.7%
remaining activity at 100 µM (-80 mV): 21.3%
remaining activity at 100 µM (-100 mV): 25.1%
remaining activity at 100 µM (-120 mV): 29%
remaining activity at 100 µM (-140 mV): 32.4%
IC50 (20 mV, 2 µM Ca2+): 9.48 µM
IC50 (40 mV, 2 µM Ca2+): 7.82 µM
IC50 (60 mV, 2 µM Ca2+): 6.65 µM
log-fold IC50 (change of mutant vs WT) (80 mV): 0.4043
IC50 (80 mV, 2 µM Ca2+): 6.02 µM
IC50 (100 mV, 2 µM Ca2+): 5.51 µM
IC50 (120 mV, 2 µM Ca2+): 5.53 µM
IC50 (140 mV, 2 µM Ca2+): 5.76 µM
IC50 (-20 mV, 2 µM Ca2+): 14.9 µM
IC50 (-40 mV, 2 µM Ca2+): 17.7 µM
IC50 (-60 mV, 2 µM Ca2+): 21.4 µM
IC50 (-80 mV, 2 µM Ca2+): 25.9 µM
IC50 (-100 mV, 2 µM Ca2+): 30.1 µM
IC50 (-120 mV, 2 µM Ca2+): 35.1 µM
IC50 (-140 mV, 2 µM Ca2+): 38.8 µM
IC50 (R535A, V 0 mV): 11.9 µM
IC50 (R535A, V 20 mV): 9.48 µM
IC50 (R535A, V 40 mV): 7.82 µM
IC50 (R535A, V 60 mV): 6.65 µM
IC50 (R535A, V 80 mV): 6.02 µM
IC50 (R535A, V 100 mV): 5.51 µM
IC50 (R535A, V 120 mV): 5.53 µM
IC50 (R535A, V 140 mV): 5.76 µM
IC50 (R535A, V -20 mV): 14.9 µM
IC50 (R535A, V -40 mV): 17.7 µM
IC50 (R535A, V -60 mV): 21.4 µM
IC50 (R535A, V -80 mV): 25.9 µM
IC50 (R535A, V -100 mV): 30.1 µM
IC50 (R535A, V -120 mV): 35.1 µM
IC50 (R535A, V -140 mV): 38.8 µM
Structure (SMILES): N#Cc1c(C(F)(F)F)cc(O)n2c1nc1ccccc12 [1PBC]
